pIC50: −log10 of the molar value. Where a name gives a salt, the structure may show the parent alone.
Assays:
NLRP3 [1] = target: T1, NLRP3 (Homo sapiens, UniProt Q96P20); test: THP-1 cells pyroptosis assay; format: cell-based; design: Seed THP-1 cells (25,000cells/well) containing 1.0 μg/ml LPS in 40 μl of RPMI medium; host or cells: THP-1 cells; settings: LPS 1 μg/ml, nigericin 5 μM, resazurin readout
Description: The cells were routinely passaged and grown to confluency (˜10^6 cells/ml). On the day of the experiment, THP-1 cells were harvested and resuspended into RPMI medium (without FBS). The cells were then counted and viability (>90%) checked by Trypan blue (Sigma #T8154). […] To this diluted cell solution was added LPS (Sigma #L4524) to give a 1 μg/ml Final Assay Concentration (FAC). 40 μl of the final preparation was aliquoted into each well of a 96-well plate. The plate thus prepared was used for compound screening.
The following method step-by-step assay was followed for compound screening. • 1. […] Incubate for 3 hrs at 37° C., 5% CO2 • 4. Add 5 μl nigericin (Sigma #N7143) (FAC 5 μM) to all wells • 5. Incubate for 1 hr at 37° C., 5% CO2 • 6. At the end of the incubation period, spin plates at 300×g for 3 mins and remove supernatant • 7. Then add 50 μl of resazurin (Sigma #R7017) (FAC 100 μM resazurin in RPMI medium without FBS) and incubate plates for a further 1-2 hrs at 37° C. and 5% CO2 • 8. […] IC50 data is fitted to a non-linear regression equation (log inhibitor vs response-variable slope 4-parameters)

NLRP3 [2] = target: T1, NLRP3; test: Human whole blood IL-1β release assay; format: cell-based; design: Human whole blood in Li-heparin tubes was obtained from healthy donors from a volunteer donor panel; from tissue; host or cells: human whole blood from healthy donors; settings: LPS 1 μg/ml, nigericin 10 μM, IL-1β AlphaLisa, read-out: HWB IC50
Description: For systemic delivery, the ability to inhibit NLRP3 when the compounds are present within the bloodstream is of great importance. For this reason, the NLRP3 inhibitory activity of a number of compounds in human whole blood was investigated in accordance with the following protocol.
Human whole blood in Li-heparin tubes was obtained from healthy donors from a volunteer donor panel. • 1. […] Incubate for 3 hrs at 37° C., 5% CO2 • 4. Add 10 μl nigericin (Sigma #N7143) (10 μM FAC) to all wells • 5. Incubate for 1 hr at 37° C., 5% CO2 • 6. At the end of the incubation period, spin plates at 300 ×g for 5 mins to pellet cells and remove 20 μl of supernatant and add to 96-well v-bottom plates for IL-1β analysis (note: these plates containing the supernatants can be stored at −80° C. to be analysed at a later date) • 7. IL-1β was measured according to the manufacturer protocol (Perkin Elmer-AlphaLisa IL-1 Kit AL220F-5000) • 8. IC50 data is fitted to a non-linear regression equation (log inhibitor vs response-variable slope 4-parameters)

T1 sequence (Q96P20 whole entry): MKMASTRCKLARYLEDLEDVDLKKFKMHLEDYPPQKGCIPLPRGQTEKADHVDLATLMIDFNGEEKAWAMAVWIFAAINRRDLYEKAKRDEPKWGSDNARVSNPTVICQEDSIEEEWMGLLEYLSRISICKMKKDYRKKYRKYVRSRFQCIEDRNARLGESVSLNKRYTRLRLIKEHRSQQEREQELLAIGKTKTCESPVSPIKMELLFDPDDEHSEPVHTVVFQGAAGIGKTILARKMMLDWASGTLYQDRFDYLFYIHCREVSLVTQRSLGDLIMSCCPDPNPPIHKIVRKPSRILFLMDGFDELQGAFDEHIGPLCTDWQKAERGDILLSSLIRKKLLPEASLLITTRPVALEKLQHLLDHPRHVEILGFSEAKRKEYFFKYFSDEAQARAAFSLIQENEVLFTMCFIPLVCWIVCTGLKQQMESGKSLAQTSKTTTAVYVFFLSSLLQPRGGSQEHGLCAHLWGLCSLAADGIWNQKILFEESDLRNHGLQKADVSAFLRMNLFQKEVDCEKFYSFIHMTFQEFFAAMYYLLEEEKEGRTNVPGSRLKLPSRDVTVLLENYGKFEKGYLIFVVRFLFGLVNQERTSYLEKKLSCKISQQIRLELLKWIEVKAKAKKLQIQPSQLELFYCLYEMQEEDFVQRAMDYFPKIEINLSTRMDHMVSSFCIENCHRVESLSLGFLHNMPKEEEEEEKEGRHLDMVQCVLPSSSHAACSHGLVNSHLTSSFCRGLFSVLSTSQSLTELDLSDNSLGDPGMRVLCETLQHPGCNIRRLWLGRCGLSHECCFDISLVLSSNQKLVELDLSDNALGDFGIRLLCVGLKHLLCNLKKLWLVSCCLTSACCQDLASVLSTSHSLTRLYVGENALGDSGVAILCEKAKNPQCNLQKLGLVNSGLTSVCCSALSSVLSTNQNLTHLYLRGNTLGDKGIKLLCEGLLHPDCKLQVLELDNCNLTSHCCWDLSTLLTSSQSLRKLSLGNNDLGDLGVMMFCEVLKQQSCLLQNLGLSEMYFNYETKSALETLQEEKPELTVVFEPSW

Row | SMILES | pIC50 (NLRP3 [1]) | pIC50 (NLRP3 [2])
1 | Cc1cc(-c2c(C)cc3c(c2NC(=O)NS(C)(=O)=O)CCC3)ccn1 [Example 1, N-((6-Methyl-5-(2-methylpyridin-4-yl)-2,3-dihydro-1H-inden-4-yl)carbamoyl)methanesulfonamide] | 6.00 to 6.30 | 6.00 to 6.30
2 | CCOc1cc(-c2c(C)cc3c(c2NC(=O)NS(C)(=O)=O)CCC3)ccn1 [Example 5] | ≥ 6.60 | 6.30 to 6.60
3 | COc1cc(-c2c(C)cc3c(c2NC(=O)NS(=O)(=O)N(C)C)CCC3)ccn1 [Example 13] | ≥ 6.60 | 6.00 to 6.30
4 | COc1cc(-c2c(NC(=O)NS(C)(=O)=O)c(C(C)C)cc(F)c2C2CC2)ccn1 [Example 31] | 6.00 to 6.30 | 5.70 to 6.00
5 | Cc1cc2c(c(NC(=O)NS(C)(=O)=O)c1-c1ccnc(OC3CCCCC3)c1)CCC2 [Example 16] | ≥ 6.60 | 5.70 to 6.00
6 | Cc1cc2c(c(NC(=O)NS(=O)(=O)c3ccccc3)c1-c1ccnc(OC3CCN(C)CC3)c1)CCC2 [Example 19] | ≥ 6.60 | 6.00 to 6.30
7 | COCC(C)Oc1cc(-c2c(C)cc3c(c2NC(=O)NS(C)(=O)=O)CCC3)ccn1 (centres unmarked) [Example 25] | ≥ 6.60 | 6.30 to 6.60
8 | Cc1nc(C(C)C)c(NC(=O)NS(=O)(=O)N(C)C2CCN(C)C2)n1-c1ccncc1 (centres unmarked) [Example 49, 1-(5-Isopropyl-2-methyl-3-(4-pyridyl)imidazol-4-yl)-3-(methyl-(1-methylpyrrolidin-3-yl)sulfamoyl)urea] | 5.00 to 5.30 | 
9 | COc1cc(-c2c(C)cc3c(c2NC(=O)NS(=O)(=O)c2ccn(C4CC4)n2)CCC3)ccn1 [Example 35] | ≥ 6.60 | 6.00 to 6.30
10 | Cc1cc2c(c(NC(=O)NS(C)(=O)=O)c1-c1ccnc(OC(F)F)c1)CCC2 [Example 3] | ≥ 6.60 | 6.00 to 6.30
11 | Cc1cc2c(c(NC(=O)NS(C)(=O)=O)c1-c1ccncc1)CCC2 [Example 2] | ≥ 6.60 | 6.30 to 6.60
12 | COc1cc(-c2c(C)cc3c(c2NC(=O)NS(=O)(=O)C2CC2)CCC3)ccn1 [Example 12] | ≥ 6.60 | 6.00 to 6.30
13 | COc1cc(-n2c(C)nc(C(C)C)c2NC(=O)NS(=O)(=O)c2cc(C(C)(C)O)co2)ccn1 [Example 48, 4-(2-Hydroxypropan-2-yl)-N-((4-isopropyl-1-(2-methoxypyridin-4-yl)-2-methyl-1H-imidazol-5-yl)carbamoyl)furan-2-sulfonamide] | 6.30 to 6.60 | 6.30 to 6.60
14 | Cc1cc2c(c(NC(=O)NS(=O)(=O)c3cc(C(C)(C)O)co3)c1-c1ccnc(OC3CCN(C)CC3)c1)CCC2 [Example 45] | ≥ 6.60 | 6.00 to 6.30
15 | Cc1cc2c(c(NC(=O)NS(C)(=O)=O)c1-c1ccnc(C#N)c1)CCC2 [Example 36] | 6.00 to 6.30 | 6.00 to 6.30
16 | COc1cc(-c2c(C)cc3c(c2NC(=O)NS(=O)(=O)c2ccccc2)CCC3)ccn1 [Example 11] | ≥ 6.60 | 5.70 to 6.00
17 | COc1cc(-c2c(C)c(F)cc(C(C)C)c2NC(=O)NS(C)(=O)=O)ccn1 [Example 7] | 6.30 to 6.60 | 6.00 to 6.30
18 | Cc1cc2c(c(NC(=O)NS(=O)(=O)C(C)(C)C)c1-c1ccnc(OC3CCN(C)CC3)c1)CCC2 [Example 18] | ≥ 6.60 | 5.30 to 5.70

Row | SMILES | pIC50 (NLRP3 [1]) | pIC50 (NLRP3 [2])
19 | CCc1c(F)cc(C(C)C)c(NC(=O)NS(C)(=O)=O)c1-c1ccnc(OC)c1 [Example 38] | 6.30 to 6.60 | 5.70 to 6.00
20 | [2H]C([2H])([2H])Oc1cc(-c2c(C)c(F)cc(C(C)C)c2NC(=O)NS(C)(=O)=O)ccn1 [Example 8] | 6.30 to 6.60 | 6.00 to 6.30
21 | Cc1cc2c(c(NC(=O)NS(=O)(=O)N(C)C)c1-c1ccnc(OC3CCN(C)CC3)c1)CCC2 [Example 26] | ≥ 6.60 | ≥ 6.60
22 | Cc1cc2c(c(NC(=O)NS(C)(=O)=O)c1-c1ccnc(OC3CC3)c1)CCC2 [Example 4] | ≥ 6.60 | 6.30 to 6.60
23 | COc1cc(-c2c(C)c(F)cc(C(C)C)c2NC(=O)NS(=O)(=O)c2ccn(C3CC3)n2)ccn1 [Example 29] | ≥ 6.60 | 5.70 to 6.00
24 | Cc1nc(C(C)C)c(NC(=O)NS(=O)(=O)c2cc(C(C)(C)O)co2)n1-c1ccncc1 [Example 46, 4-(2-Hydroxypropan-2-yl)-N-((4-isopropyl-2-methyl-1-(pyridin-4-yl)-1H-imidazol-5-yl)carbamoyl)furan-2-sulfonamide, ammonium salt] | ≥ 6.60 | ≥ 6.60
25 | Cc1nc(C(C)C)c(NC(=O)NS(=O)(=O)c2ccn(C3CC3)n2)n1-c1ccncc1 [Example 47, 1-Cyclopropyl-N-((4-isopropyl-2-methyl-1-(pyridin-4-yl)-1H-imidazol-5-yl)carbamoyl)-1H-pyrazole-3-sulfonamide] | 6.30 to 6.60 | 6.30 to 6.60
26 | Cc1cc2c(c(NC(=O)NS(C)(=O)=O)c1-c1ccnc(O[C@H]3CC[C@@H](O)CC3)c1)CCC2 [Example 6] | ≥ 6.60 | ≥ 6.60
27 | [2H]C([2H])([2H])Oc1cc(-c2c(C)cc3c(c2NC(=O)NS(C)(=O)=O)CCC3)ccn1 [Example 10] | ≥ 6.60 | 6.30 to 6.60
28 | Cc1cc2c(c(NC(=O)NS(C)(=O)=O)c1-c1ccnc(OC3CCOCC3)c1)CCC2 [Example 22] | ≥ 6.60 | ≥ 6.60
29 | Cc1cc2c(c(NC(=O)NS(C)(=O)=O)c1-c1ccnc(OC3CCN(C)CC3)c1)CCC2 [Example 28] | ≥ 6.60 | ≥ 6.60
30 | Cc1cc2c(c(NC(=O)NS(=O)(=O)c3ccn(C(C)C)n3)c1-c1ccnc(OC3CCN(C)CC3)c1)CCC2 [Example 44] | ≥ 6.60 | 6.30 to 6.60
31 | CCS(=O)(=O)NC(=O)Nc1c2c(cc(C)c1-c1ccnc(OC)c1)CCC2 [Example 42] | ≥ 6.60 | 6.30 to 6.60
32 | COc1cc(-c2c(C)cc3c(c2NC(=O)NS(C)(=O)=O)CCC3)ccn1 [Example 40, N-((5-(2-Methoxypyridin-4-yl)-6-methyl-2,3-dihydro-1H-inden-4-yl)carbamoyl)methanesulfonamide, sodium salt] | ≥ 6.60 | 6.30 to 6.60
33 | COc1cc(-c2c(C3CC3)cc3c(c2NC(=O)NS(C)(=O)=O)CCC3)ccn1 [Example 34] | ≥ 6.60 | 5.70 to 6.00
34 | COc1cc(-c2c(F)c(F)cc(C(C)C)c2NC(=O)NS(C)(=O)=O)ccn1 [Example 33] | 6.00 to 6.30 | 5.70 to 6.00
35 | Cc1cc2c(c(NC(=O)NS(=O)(=O)C3CC3)c1-c1ccnc(OC3CCN(C)CC3)c1)CCC2 [Example 21] | ≥ 6.60 | ≥ 6.60
36 | Cc1cc2c(c(NC(=O)NS(C)(=O)=O)c1-c1ccnc(OC3CCN(C)CC3)c1C)CCC2 [Example 20] | 6.30 to 6.60 | 6.30 to 6.60

Reference: patent US20220106288A1, “NOVEL SULFONEUREA COMPOUNDS” (INFLAZOME LIMITED, priority 2018, published 2022)
